In ChEMBL document CHEMBL2203208, “Synthesis and structure-activity relationships of dual PI3K/mTOR inhibitors based on a 4-amino-6-methyl-1,3,5-triazine sulfonamide scaffold” (Bioorg Med Chem Lett, 2012):
Converted amounts (≈) assume the structure as drawn.

Key:
[1] = Plasma protein binding in mouse; type: ADME, cell-free; settings: read-out: PPB (converted)
[2] = Plasma protein binding in dog; type: ADME, cell-free, Canis lupus familiaris; settings: read-out: PPB (converted)
[3] = Plasma protein binding in rat; type: ADME, cell-free; settings: read-out: PPB (converted)
[4] = Plasma protein binding in human; type: ADME, cell-free; settings: read-out: PPB (converted)
[5] = biological target: Voltage-gated inwardly rectifying potassium channel KCNH2 (Homo sapiens, UniProt Q12809); assay: Inhibition of human ERG
rodent MDR1 = assay: Permeability across pig LLC-PK1 cells expressing rodent MDR1; type: ADME, cell-based, Sus scrofa; settings: read-out: permeability
human MDR1 = assay: Permeability across pig LLC-PK1 cells expressing human MDR1; type: ADME, cell-based, Sus scrofa; settings: read-out: permeability
Mus musculus [6] = assay: Inhibition of PI3K in human U87MG cells xenografted in po dosed CD1 nu/nu mouse assessed as plasma concentration required for inhibition of AKT ser473 phosphorylation after 6 hrs; type: functional, organism-based, U-87MG ATCC; settings: CD1, U-87 MG
[7] = biological target: Phosphatidylinositol 3-kinase catalytic subunit type 3 (Homo sapiens, UniProt Q8NEB9); assay: Inhibition of human VPS34 using phosphatidylinositol/phosphatidylserine as substrate after 30 mins by fluorescence-based immunoassay
Sequence of Phosphatidylinositol 3-kinase catalytic subunit type 3 (Q8NEB9 whole entry, canonical isoform): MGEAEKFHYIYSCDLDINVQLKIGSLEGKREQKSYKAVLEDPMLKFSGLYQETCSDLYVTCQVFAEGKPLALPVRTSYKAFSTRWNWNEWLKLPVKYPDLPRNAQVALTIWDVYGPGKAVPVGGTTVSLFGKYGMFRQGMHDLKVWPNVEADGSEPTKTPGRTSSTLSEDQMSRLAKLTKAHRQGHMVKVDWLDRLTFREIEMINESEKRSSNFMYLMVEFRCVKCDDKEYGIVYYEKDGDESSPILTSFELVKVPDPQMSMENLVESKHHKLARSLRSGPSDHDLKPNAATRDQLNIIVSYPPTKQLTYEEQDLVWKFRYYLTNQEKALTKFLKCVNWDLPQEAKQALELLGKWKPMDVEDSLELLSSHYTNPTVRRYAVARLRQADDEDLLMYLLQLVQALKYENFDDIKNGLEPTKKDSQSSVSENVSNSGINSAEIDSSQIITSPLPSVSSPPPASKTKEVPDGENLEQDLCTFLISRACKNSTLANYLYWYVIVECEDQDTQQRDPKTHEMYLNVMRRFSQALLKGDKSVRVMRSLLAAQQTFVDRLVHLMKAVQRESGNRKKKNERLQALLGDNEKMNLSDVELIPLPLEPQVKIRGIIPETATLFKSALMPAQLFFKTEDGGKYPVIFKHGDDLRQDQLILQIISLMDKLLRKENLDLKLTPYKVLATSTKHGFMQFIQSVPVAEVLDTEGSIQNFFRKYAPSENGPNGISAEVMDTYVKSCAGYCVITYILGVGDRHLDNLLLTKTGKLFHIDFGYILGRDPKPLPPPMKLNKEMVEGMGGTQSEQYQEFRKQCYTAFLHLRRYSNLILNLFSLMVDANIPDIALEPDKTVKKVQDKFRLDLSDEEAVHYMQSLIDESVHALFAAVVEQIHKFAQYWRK

[8] = biological target: Phosphatidylinositol 4,5-bisphosphate 3-kinase catalytic subunit gamma isoform (Homo sapiens, UniProt P48736); design: species or system BTI-TN-5B1-4
Sequence of Phosphatidylinositol 4,5-bisphosphate 3-kinase catalytic subunit gamma isoform (P48736 whole entry, canonical isoform): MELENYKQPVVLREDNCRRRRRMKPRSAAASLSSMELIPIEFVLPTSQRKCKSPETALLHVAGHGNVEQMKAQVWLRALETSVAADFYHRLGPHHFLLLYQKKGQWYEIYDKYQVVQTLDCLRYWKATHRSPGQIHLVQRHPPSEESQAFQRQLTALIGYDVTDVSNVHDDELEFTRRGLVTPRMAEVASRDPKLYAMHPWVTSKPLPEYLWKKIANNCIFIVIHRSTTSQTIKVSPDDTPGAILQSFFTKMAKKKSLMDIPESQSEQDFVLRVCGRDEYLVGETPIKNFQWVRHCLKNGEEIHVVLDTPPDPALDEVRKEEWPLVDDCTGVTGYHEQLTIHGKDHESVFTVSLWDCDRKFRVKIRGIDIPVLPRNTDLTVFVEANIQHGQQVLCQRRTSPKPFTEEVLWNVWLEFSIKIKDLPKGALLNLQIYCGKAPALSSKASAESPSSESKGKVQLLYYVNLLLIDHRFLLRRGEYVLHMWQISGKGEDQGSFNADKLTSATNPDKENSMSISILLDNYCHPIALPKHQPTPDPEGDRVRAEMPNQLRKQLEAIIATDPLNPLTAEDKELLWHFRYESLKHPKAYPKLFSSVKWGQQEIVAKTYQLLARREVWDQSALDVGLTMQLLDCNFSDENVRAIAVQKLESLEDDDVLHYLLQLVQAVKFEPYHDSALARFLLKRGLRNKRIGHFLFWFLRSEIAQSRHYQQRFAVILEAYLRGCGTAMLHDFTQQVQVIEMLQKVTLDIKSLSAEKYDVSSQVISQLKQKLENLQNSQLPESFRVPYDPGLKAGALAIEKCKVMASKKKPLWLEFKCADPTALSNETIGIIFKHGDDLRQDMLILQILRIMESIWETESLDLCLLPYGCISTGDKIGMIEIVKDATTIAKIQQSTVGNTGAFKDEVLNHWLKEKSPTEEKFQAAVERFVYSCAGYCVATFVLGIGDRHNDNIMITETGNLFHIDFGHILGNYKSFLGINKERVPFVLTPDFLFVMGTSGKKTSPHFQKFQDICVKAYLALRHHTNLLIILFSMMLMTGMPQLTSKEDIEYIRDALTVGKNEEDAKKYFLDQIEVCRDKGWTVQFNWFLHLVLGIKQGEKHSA

[9] = biological target: T1, Phosphatidylinositol 4,5-bisphosphate 3-kinase catalytic subunit delta isoform (Homo sapiens, UniProt O00329)
T1 sequence (O00329 whole entry): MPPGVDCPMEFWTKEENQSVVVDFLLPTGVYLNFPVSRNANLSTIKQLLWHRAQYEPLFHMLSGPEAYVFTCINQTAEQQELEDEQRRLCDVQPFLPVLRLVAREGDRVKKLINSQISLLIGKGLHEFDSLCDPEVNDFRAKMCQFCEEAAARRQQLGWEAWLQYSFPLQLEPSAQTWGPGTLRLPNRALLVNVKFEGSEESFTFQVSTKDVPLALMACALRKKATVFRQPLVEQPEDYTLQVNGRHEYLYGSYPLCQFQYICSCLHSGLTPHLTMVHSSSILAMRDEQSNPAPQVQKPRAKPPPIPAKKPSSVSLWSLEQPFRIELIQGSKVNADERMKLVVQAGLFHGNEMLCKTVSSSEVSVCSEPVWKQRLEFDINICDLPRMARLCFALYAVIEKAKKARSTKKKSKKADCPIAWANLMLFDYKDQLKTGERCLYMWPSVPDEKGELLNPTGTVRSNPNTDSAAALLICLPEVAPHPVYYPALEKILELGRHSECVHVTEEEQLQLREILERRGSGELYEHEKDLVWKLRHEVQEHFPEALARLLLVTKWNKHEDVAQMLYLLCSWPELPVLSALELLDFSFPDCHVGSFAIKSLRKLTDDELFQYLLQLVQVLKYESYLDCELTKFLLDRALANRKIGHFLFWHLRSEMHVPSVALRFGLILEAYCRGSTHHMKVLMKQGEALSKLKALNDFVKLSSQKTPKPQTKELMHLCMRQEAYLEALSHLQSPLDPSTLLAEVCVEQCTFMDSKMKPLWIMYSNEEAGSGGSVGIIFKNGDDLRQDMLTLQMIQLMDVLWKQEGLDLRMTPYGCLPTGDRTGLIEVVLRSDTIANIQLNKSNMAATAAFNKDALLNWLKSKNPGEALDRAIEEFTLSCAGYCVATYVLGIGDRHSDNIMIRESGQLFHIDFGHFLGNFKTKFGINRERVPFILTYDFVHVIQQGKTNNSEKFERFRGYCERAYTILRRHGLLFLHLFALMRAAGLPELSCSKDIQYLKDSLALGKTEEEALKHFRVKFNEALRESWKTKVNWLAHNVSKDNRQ
Description: Inhibition of human N-terminal polyHis-tagged PI3K p110delta expressed in baculovirus infected Hi5 cells using Phosphatidylinositol-4,5-bisphosphate as substrate after 20 mins by AlphaScreen assay

[10] = biological target: Phosphatidylinositol 4,5-bisphosphate 3-kinase catalytic subunit beta isoform (Homo sapiens, UniProt P42338)
Sequence of Phosphatidylinositol 4,5-bisphosphate 3-kinase catalytic subunit beta isoform (P42338 whole entry, canonical isoform): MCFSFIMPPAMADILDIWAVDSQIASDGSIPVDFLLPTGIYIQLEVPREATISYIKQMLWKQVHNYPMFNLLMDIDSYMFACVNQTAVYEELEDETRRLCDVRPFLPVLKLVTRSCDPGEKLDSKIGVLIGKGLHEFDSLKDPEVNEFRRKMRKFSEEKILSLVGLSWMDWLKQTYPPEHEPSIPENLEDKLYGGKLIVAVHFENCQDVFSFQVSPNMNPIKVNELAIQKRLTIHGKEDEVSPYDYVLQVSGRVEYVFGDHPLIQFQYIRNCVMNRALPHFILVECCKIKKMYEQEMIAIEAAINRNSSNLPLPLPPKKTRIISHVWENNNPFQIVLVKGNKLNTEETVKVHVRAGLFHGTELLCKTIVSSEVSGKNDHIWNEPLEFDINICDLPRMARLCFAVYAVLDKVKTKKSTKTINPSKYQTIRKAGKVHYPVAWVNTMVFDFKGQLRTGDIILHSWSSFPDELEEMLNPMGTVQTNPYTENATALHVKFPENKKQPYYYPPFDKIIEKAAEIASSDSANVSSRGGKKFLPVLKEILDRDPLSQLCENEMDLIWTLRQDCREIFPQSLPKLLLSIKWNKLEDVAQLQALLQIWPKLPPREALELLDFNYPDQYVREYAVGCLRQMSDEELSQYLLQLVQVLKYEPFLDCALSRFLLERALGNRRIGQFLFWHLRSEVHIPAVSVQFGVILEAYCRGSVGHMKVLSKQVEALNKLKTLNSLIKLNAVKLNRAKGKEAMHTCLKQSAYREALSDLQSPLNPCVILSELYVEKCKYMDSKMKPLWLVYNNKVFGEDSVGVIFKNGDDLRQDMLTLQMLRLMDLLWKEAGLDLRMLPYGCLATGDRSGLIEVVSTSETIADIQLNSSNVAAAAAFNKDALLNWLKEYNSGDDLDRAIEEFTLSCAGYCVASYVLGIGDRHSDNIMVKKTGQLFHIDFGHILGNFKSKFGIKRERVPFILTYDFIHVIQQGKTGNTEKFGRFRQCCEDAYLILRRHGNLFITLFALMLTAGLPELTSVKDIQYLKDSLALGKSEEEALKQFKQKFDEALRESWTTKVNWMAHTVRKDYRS
Description: Inhibition of human N-terminal polyHis-tagged PI3K p110beta expressed in baculovirus infected Hi5 cells using Phosphatidylinositol-4,5-bisphosphate as substrate after 20 mins by AlphaScreen assay

[11] = biological target: Phosphatidylinositol 4,5-bisphosphate 3-kinase catalytic subunit alpha isoform (Homo sapiens, UniProt P42336)
Sequence of Phosphatidylinositol 4,5-bisphosphate 3-kinase catalytic subunit alpha isoform (P42336 whole entry, canonical isoform): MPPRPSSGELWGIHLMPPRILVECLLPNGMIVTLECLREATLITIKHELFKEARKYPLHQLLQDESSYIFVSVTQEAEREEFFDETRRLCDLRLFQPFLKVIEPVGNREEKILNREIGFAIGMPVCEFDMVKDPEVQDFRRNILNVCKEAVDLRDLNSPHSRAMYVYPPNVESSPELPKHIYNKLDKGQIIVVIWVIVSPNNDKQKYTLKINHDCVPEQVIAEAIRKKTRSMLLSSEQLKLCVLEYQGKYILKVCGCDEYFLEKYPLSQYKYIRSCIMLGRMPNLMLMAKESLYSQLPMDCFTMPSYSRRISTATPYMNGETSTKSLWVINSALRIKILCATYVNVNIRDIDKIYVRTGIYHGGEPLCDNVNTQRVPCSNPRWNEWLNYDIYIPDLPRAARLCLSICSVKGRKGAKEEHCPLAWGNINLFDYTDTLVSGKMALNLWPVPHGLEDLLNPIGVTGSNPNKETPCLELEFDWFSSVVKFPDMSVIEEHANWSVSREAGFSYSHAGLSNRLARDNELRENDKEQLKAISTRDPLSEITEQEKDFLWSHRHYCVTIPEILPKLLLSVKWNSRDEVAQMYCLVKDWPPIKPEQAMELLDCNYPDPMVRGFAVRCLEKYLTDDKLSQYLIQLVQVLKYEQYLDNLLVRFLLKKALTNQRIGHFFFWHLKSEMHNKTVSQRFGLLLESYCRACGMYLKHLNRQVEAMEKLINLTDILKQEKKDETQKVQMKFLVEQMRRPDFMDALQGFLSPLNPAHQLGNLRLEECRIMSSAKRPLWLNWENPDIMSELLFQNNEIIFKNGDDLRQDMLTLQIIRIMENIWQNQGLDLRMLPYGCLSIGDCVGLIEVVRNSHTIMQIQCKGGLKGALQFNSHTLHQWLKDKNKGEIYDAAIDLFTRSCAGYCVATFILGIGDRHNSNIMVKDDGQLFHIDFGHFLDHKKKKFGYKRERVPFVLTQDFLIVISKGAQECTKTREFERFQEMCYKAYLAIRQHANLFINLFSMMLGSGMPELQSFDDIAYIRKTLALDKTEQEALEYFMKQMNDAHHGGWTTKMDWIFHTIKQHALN
Description: Inhibition of human N-terminal polyHis-tagged PI3K p110alpha expressed in baculovirus infected Hi5 cells using Phosphatidylinositol-4,5-bisphosphate as substrate after 20 mins by AlphaScreen assay

Mus musculus [12] = species on record: Mus musculus; settings: CD1, U-87MG ATCC
Description: Inhibition of PI3K-mediated AKT Ser473 phosphorylation in human U87MG cells xenografted in po dosed CD1 nu/nu mouse after 6 hrs

in vivo [13] = settings: Sprague-Dawley, rat, plasma, po, 2 mg/kg
in vivo [14] = settings: Sprague-Dawley, rat, po, 2 mg/kg
in vivo [15] = settings: Sprague-Dawley, rat, iv, 1 mg/kg
Description: (§1) Mean residence time in Sprague-Dawley rat at 1 mg/kg, iv

in vivo [16] = settings: Sprague-Dawley, rat, iv, 1 mg/kg; remark: listed apart in the source
in vivo [17] = settings: Sprague-Dawley, rat, iv, 1 mg/kg; remark: listed apart in the source
Description: (§2) Clearance in Sprague-Dawley rat at 1 mg/kg, iv

in vitro [18] = settings: human, liver microsomes
Description: Clearance in human liver microsomes at 1 uM after 30 mins in presence of NADPH

in vitro [19] = settings: rat, liver microsomes
Description: Clearance in rat liver microsomes at 1 uM after 30 mins in presence of NADPH

physchem [20] = settings: simulated intestinal fluid
Description: Equilibrium solubility of the compound in simulated intestinal fluid after 48 to 72 hrs

physchem [21] = settings: phosphate buffered saline
Description: Equilibrium solubility of the compound in phosphate buffered saline after 48 to 72 hrs

physchem [22] = settings: 0.01N HCl
Description: Equilibrium solubility of the compound in 0.01N HCl after 48 to 72 hrs

[23] = biological target: Serine/threonine-protein kinase mTOR (Homo sapiens, UniProt P42345)
Description: Inhibition of recombinant N-terminal GST-tagged mTOR using GFP-4EBP as substrate after 90 mins by TR-FRET assay

Rattus norvegicus [24] = species on record: Rattus norvegicus; settings: in vivo, po, 2 mg/kg
Rattus norvegicus [25] = species on record: Rattus norvegicus; settings: in vivo, po, 2 mg/kg; remark: listed apart in the source
Rattus norvegicus [26] = species on record: Rattus norvegicus; settings: in vivo, iv, 1 mg/kg
Description: as §1

Rattus norvegicus [27] = species on record: Rattus norvegicus; settings: in vivo, iv, 1 mg/kg; remark: listed apart in the source
Rattus norvegicus [28] = species on record: Rattus norvegicus; settings: in vivo, iv, 1 mg/kg; remark: listed apart in the source
Description: as §2

## Cc1nc(N)nc(-c2cc(Cl)cnc2Nc2cnc(Cl)c(NS(=O)(=O)N(C)C)c2)n1
[1]
  fraction unbound: 0.0287
[2]
  fraction unbound: 0.0035
[3]
  fraction unbound: 0.002
[4]
  fraction unbound: 0.002
[5]
  inhibition (INH): Not Active
Rodent MDR1
  Papp: 12.2 ×10⁻⁶ cm/s
Human MDR1
  Papp: 12.2 ×10⁻⁶ cm/s
Mus musculus [6]
  EC50: 0.091 µg/mL (≈ 0.193 µM)
[7]
  IC50: 606 nM
[8]
  Ki: 1 nM
[9]
  Ki: 0.4 nM
[10]
  Ki: 0.6 nM
[11]
  Ki: 7.7 nM
Mus musculus [12]
  inhibition: Dose-dependent effect
In vivo [13]
  AUC: 3360 ng·h/mL
In vivo [14]
  bioavailability: 63%
In vivo [15]
  MRT: 2.5 h
In vivo [16]
  Vd: 0.97 L/kg
In vivo [17]
  clearance: 6.5 mL/min/kg
In vitro [18]
  microsomal CLint at 0.5 h, 1 µM: 47 µL/min/mg
In vitro [19]
  microsomal CLint at 0.5 h, 1 µM: 27 µL/min/mg
Physchem [20]
  solubility thermodynamic: 11600 µg/mL (≈ 24700 µM)
Physchem [21]
  solubility thermodynamic: 2000 µg/mL (≈ 4250 µM)
Physchem [22]
  solubility thermodynamic: 1000 µg/mL (≈ 2130 µM)

## Cc1nc(N)nc(-c2cc(CN3CCOCC3)cnc2Nc2cnc(Cl)c(NS(=O)(=O)N(C)C)c2)n1
[11]
  Ki: 1.9 nM
Physchem [20]
  solubility thermodynamic: 16 µg/mL (≈ 29.9 µM)
Physchem [21]
  solubility thermodynamic: 11 µg/mL (≈ 20.6 µM)
Physchem [22]
  solubility thermodynamic: 200 µg/mL (≈ 374 µM)

## Cc1nc(N)nc(-c2cccnc2Nc2cnc(Cl)c(NS(C)(=O)=O)c2)n1
[7]
  IC50: 1290 nM
[8]
  Ki: 2.4 nM
[23]
  IC50: 198 nM
[9]
  Ki: 1.2 nM
[10]
  Ki: 4.4 nM
[11]
  Ki: 20 nM
Rattus norvegicus [24]
  AUC: 4238 ng·h/mL
Rattus norvegicus [25]
  F: 33%
Rattus norvegicus [26]
  MRT: 4.5 h
Rattus norvegicus [27]
  Vdss: 0.4 L/kg
Rattus norvegicus [28]
  CL: 6.5 mL/min/kg
In vitro [18]
  microsomal CLint at 0.5 h, 1 µM: < 14 µL/min/mg
In vitro [19]
  microsomal CLint at 0.5 h, 1 µM: < 14 µL/min/mg
Physchem [20]
  solubility thermodynamic: 46200 µg/mL (≈ 114000 µM)
Physchem [21]
  solubility thermodynamic: 2900 µg/mL (≈ 7130 µM)
Physchem [22]
  solubility thermodynamic: 5800 µg/mL (≈ 14300 µM)

## Cc1nc(N)nc(-c2cccnc2Nc2cnc(Cl)c(NS(=O)(=O)N(C)C(C)C)c2)n1
[11]
  Ki: 43 nM

## Cc1nc(N)nc(-c2cc(Cl)cnc2Nc2cnc(C)c(NS(C)(=O)=O)c2)n1
[11]
  Ki: 161 nM

## Cc1nc(N)nc(-c2cccnc2Nc2cnc(Cl)c(NS(=O)(=O)N3CCOCC3)c2)n1
[11]
  Ki: 16 nM

## Cc1nc(N)nc(-c2cccnc2Nc2cnc(Cl)c(NS(=O)(=O)c3ccc(F)cc3)c2)n1
[11]
  Ki: 16 nM
Physchem [20]
  solubility thermodynamic: 46200 µg/mL (≈ 94900 µM)
Physchem [21]
  solubility thermodynamic: 2900 µg/mL (≈ 5960 µM)
Physchem [22]
  solubility thermodynamic: 5800 µg/mL (≈ 11900 µM)

## COc1cnc(Nc2cnc(Cl)c(NS(C)(=O)=O)c2)c(-c2nc(C)nc(N)n2)c1
[11]
  Ki: 11 nM
Rattus norvegicus [24]
  AUC: 419 ng·h/mL
Rattus norvegicus [25]
  F: 1.8%
Rattus norvegicus [28]
  CL: 3.5 mL/min/kg
In vivo [15]
  MRT: 1.3 h
In vivo [16]
  Vd: 0.28 L/kg
In vitro [18]
  microsomal CLint at 0.5 h, 1 µM: < 14 µL/min/mg
In vitro [19]
  microsomal CLint at 0.5 h, 1 µM: < 14 µL/min/mg
Physchem [20]
  solubility thermodynamic: 1 µg/mL (≈ 2.29 µM)
Physchem [21]
  solubility thermodynamic: 1 µg/mL (≈ 2.29 µM)
Physchem [22]
  solubility thermodynamic: 1 µg/mL (≈ 2.29 µM)

## COCCOc1cnc(Nc2cnc(Cl)c(NS(C)(=O)=O)c2)c(-c2nc(C)nc(N)n2)c1
[8]
  Ki: 14 nM
[23]
  IC50: 32 nM
[9]
  Ki: 6.1 nM
[10]
  Ki: 16 nM
[11]
  Ki: 18 nM
In vivo [13]
  AUC: 1210 ng·h/mL
In vivo [14]
  bioavailability: 28%
In vivo [15]
  MRT: 1.1 h
In vivo [16]
  Vd: 0.52 L/kg
In vivo [17]
  clearance: 7.67 mL/min/kg
In vitro [18]
  microsomal CLint at 0.5 h, 1 µM: < 14 µL/min/mg
In vitro [19]
  microsomal CLint at 0.5 h, 1 µM: < 14 µL/min/mg
Physchem [20]
  solubility thermodynamic: 43 µg/mL (≈ 89.4 µM)
Physchem [21]
  solubility thermodynamic: 34 µg/mL (≈ 70.7 µM)
Physchem [22]
  solubility thermodynamic: 33 µg/mL (≈ 68.6 µM)

## COc1ncc(Nc2ncc(Cl)cc2-c2nc(C)nc(N)n2)cc1NS(C)(=O)=O
[11]
  Ki: 114 nM

## Cc1nc(N)nc(-c2cc(CN3CCOCC3)cnc2Nc2cnc(Cl)c(NS(C)(=O)=O)c2)n1
[11]
  Ki: 9.7 nM
Physchem [20]
  solubility thermodynamic: 8 µg/mL (≈ 15.8 µM)
Physchem [21]
  solubility thermodynamic: 11 µg/mL (≈ 21.7 µM)
Physchem [22]
  solubility thermodynamic: 200 µg/mL (≈ 395 µM)
